± gives the expanded uncertainty stated by the source.
How the values were obtained:
[1] = Liquid, Ebulliometric method (Recirculating still)
[2] = wn = mass fraction of the nth substance listed; settings: 100 kPa, Liquid, Pycnometric method

Cl.Nc1ccccc1 [aniline hydrochloride]
[1]
Settings | vapor or sublimation pressure [kPa]
475.15 K | 23.25 ± 0.18
480.15 K | 27.25 ± 0.2
484.15 K | 31.25 ± 0.2
488.15 K | 34.25 ± 0.25
493.15 K | 41.25 ± 0.61
494.15 K | 44.25 ± 0.42
495.15 K | 45.25 ± 0.25
496.15 K | 46.25 ± 0.31
498.15 K | 49.25 ± 0.37
499.15 K | 51.25 ± 0.39
500.15 K | 52.75 ± 0.39
501.15 K | 54.75 ± 0.39
502.15 K | 56.25 ± 0.46
503.15 K | 59 ± 0.43
505.15 K | 62.25 ± 0.46
509.15 K | 71.25 ± 0.53
512.15 K | 79.25 ± 0.6
513.65 K | 83.75 ± 0.66
516.15 K | 91.25 ± 0.73
517.65 K | 97.25 ± 0.75
519.15 K | 101.5 ± 0.81
519.65 K | 105.25 ± 1.1
521.15 K | 112.25 ± 1.1
522.15 K | 118.25 ± 1.3
524.15 K | 131.25 ± 1.3
525.15 K | 136.25 ± 1.1
526.15 K | 141.25 ± 1.3
527.15 K | 148.25 ± 1.5

Cl.Nc1ccccc1 [aniline hydrochloride] + O
mass density [kg/m3], [2]
Settings | w1 = 0.01 | w1 = 0.05 | w1 = 0.1 | w1 = 0.15 | w1 = 0.2 | w1 = 0.3 | w1 = 0.35 | w1 = 0.4 | w1 = 0.6
298.15 K | 1000 ± 1 | 1009.2 ± 0.3 | 1018.9 ± 0.3 | 1028.7 ± 0.3 | 1038.5 ± 0.3 | 1057.8 ± 0.3 | 1068 ± 1 | 1078.3 ± 0.3 | –
303.15 K | 997.4 ± 0.3 | 1007.3 ± 0.3 | 1016.3 ± 0.3 | 1026.6 ± 0.3 | 1036.8 ± 0.3 | 1056 ± 1 | 1065.8 ± 0.3 | 1075.6 ± 0.3 | –
313.15 K | 994.3 ± 0.3 | 1002.3 ± 0.3 | 1012.3 ± 0.3 | 1021.7 ± 0.3 | 1031 ± 1 | 1049.6 ± 0.3 | 1059.7 ± 0.4 | 1069.7 ± 0.4 | –
323.15 K | 989.5 ± 0.3 | 995.9 ± 0.3 | 1007.3 ± 0.3 | 1016.5 ± 0.3 | 1025.8 ± 0.3 | 1045.3 ± 0.4 | 1055.1 ± 0.4 | 1065 ± 1 | 1107.5 ± 0.4
333.15 K | 985.6 ± 0.4 | 991.2 ± 0.4 | 1003.8 ± 0.4 | 1012.8 ± 0.4 | 1021.8 ± 0.4 | 1040.6 ± 0.4 | 1050.1 ± 0.4 | 1059.6 ± 0.4 | 1103.3 ± 0.4
343.15 K | 979.1 ± 0.4 | 985.1 ± 0.4 | 997.1 ± 0.4 | 1005.9 ± 0.4 | 1014.7 ± 0.4 | 1033.5 ± 0.4 | 1043 ± 1 | 1052.5 ± 0.4 | 1097.1 ± 0.5
353.15 K | 975.1 ± 0.4 | 980.7 ± 0.4 | 990.2 ± 0.5 | 998.8 ± 0.5 | 1007.4 ± 0.5 | 1026.7 ± 0.5 | 1036.3 ± 0.5 | 1045.9 ± 0.5 | 1087 ± 1
356.65 K | 965.4 ± 0.9 | 973.4 ± 0.8 | 978.7 ± 0.9 | 987.6 ± 1 | 996.6 ± 0.9 | 1016 ± 1 | 1026.1 ± 0.9 | 1036.3 ± 0.9 | 1078 ± 1

O [water] + Cl.Nc1ccccc1
[2], w2 = 0
Settings | mass density [kg/m3]
298.15 K | 997.7 ± 0.3
303.15 K | 996 ± 1
313.15 K | 992 ± 1
323.15 K | 986.6 ± 0.3
333.15 K | 983.1 ± 0.4
343.15 K | 977.3 ± 0.4
353.15 K | 971.8 ± 0.4
356.65 K | 963.9 ± 0.7

From the NIST ThermoML archive (doi:10.1016/j.fluid.2015.12.053)
